This passage reports IC50 results from US9624213B2 (Plexxikon Inc., priority 2011, dated 2017).

One experiment deals with A375. Put plainly: A375_P-ERK / A375 cell activity. In kind it is cell-based. The note with it: Homo sapiens, A-375; A375 cells (A375_P-ERK). Here is the method: (§1) Compounds are assessed in a variety of cell based assays. For example human cell lines with B-Raf V600E mutation (A375 melanoma, SKMEL3 melanoma, and COLO205 colon adenocarcinoma), as well as tumorigenic cell lines with wild-type B-RAF (SW620 colon adenocarcinoma) or with Ras mutations (SKMEL2 melanoma and IPC298 melanoma). Similar assays may be used to assess additional tumorigenic cell lines with Ras mutations, including, but not limited to, M202, M207, M243, M244, M296, S117, HCT116, HCT15, DLD1, MiaPaCa, A549, NCI-H23, NCI-H460, HOP62, MDA-MB231, Hs-578T, HL60, MOLT-4, and CCRF-CEM.
(§2) On day 1, cells are counted, then centrifuged in a conical tube for 5 minutes at 1000 rpm. The supernatant is removed and cells are re-suspended as follows: • SW620 (ATCC catalog #CCL-27): resuspend in Leibovitz's L-15 medium, 2 mM L-glutamine, 10% fetal bovine serum to 6×10^4 cells/mL. • A375 (ATCC catalog #CRL-1619): resuspend in Dulbecco's modified Eagle's medium, 4 mM L-glutamine, 4.5 g/L D-glucose, 10% fetal bovine serum to 6×10^4 cells/mL. • COLO205 (ATCC catalog #CCL-222): resuspend in RPMI 1640, 2 mM L-glutamine, 1.5 g/L sodium bicarbonate, 4.5 g/L D-glucose, 10 mM HEPES, 1.0 mM sodium pyruvate, 10% fetal bovine serum to 6×10^4 cells/mL. • SKMEL2 (ATCC catalog #HTB-68): resuspend in Minimum Eagle essential medium, 2 mM L-glutamine, 1.5 g/L sodium bicarbonate, 0.1 mM non-essential amino acids, 1.0 mM sodium pyruvate, 10% fetal bovine serum to 6×10^4 cells/mL. • SKMEL3 (ATCC catalog #HTB-69): resuspend in McCoy's 5A medium, 1.5 mM L-glutamine, 15% fetal bovine serum to 6×10^4 cells/mL. • IPC298 (DSMZ catalog #ACC 251): resuspend in RPMI 1640, 2 mM L-glutamine, 10% fetal bovine serum to 6×10^4 cells/mL.
(§3) The cells are plated, 50 μL in each well of a 96-well dish (Corning 3610) and incubated at 37° C. in 5% CO2 overnight, cells plated to a final concentration of cells as follows: • SW620: 5,000 cells per well. • A375: 2,000 cells per well. • COLO205: 2,000 cells per well. • SKMEL2: 2,000 cells per well. • SKMEL3: 3,000 cells per well. • IPC298: 2,000 cells per well.
(§4) On day 2, compound at a maximum concentration of 5 mM is serially diluted 1:3 (e.g. 10 μL with 30 μL dimethyl sulfoxide) for a total of 8 point titration with DMSO as a control. A 1 μL aliquot of each dilution point and control is added to 249 μL growth media and 50 μL is added to a well containing cells, providing 10 μM compound at the maximum concentration point. The cells are incubated for 3 days at 37° C. in 5% CO2.
(§5) On day 5, ATPlite 1 step Luminescence Assay System (Perkin Elmer #6016739) is brought to room temperature along with the cell cultures. ATPlite is added 25 μL to each well, shake for 2 minutes, and the cells are incubated at room temperature for 10 minutes, then luminescence is read on Satire reader. The measured luminescence correlates directly with cell number, such that the reading as a function of compound concentration is used to determine the IC50 value.

A further experiment relates to COLO205. Put plainly: COLO205 cell growth inhibitory activity (ATPlite). It is filed as cell-based. The note with it: Homo sapiens, COLO 205, 72 h; COLO205 cells, growth inhibition, 3 days. Here is the method:
as §1, §2, §3, §4, §5
On the technique in general: ATP-based viability assays read luminescence as a measure of living cells.

Broadly, the IC50 is the concentration at which inhibition is half-maximal. Low readings indicate greater potency, high ones weaker potency. Regarding `O=C(c1c(F)ccc(NS(=O)(=O)N2CCCC2)c1F)c1c[nH]c2ncc(F)c(I)c12` [Compound P-0015, N-[2,4-difluoro-3-(5-fluoro-4-iodo-1H-pyrrolo[2,3-b]pyridine-3-carbonyl)phenyl]pyrrolidine-1-sulfonamide], the IC50 is under 1 µM with A375 and over 1 µM in the experiment with COLO205.

Consider `O=C(c1c(F)ccc(NS(=O)(=O)N2CCCC2)c1F)c1c[nH]c2ncc(-c3ccc(Cl)cc3)cc12` [Compound P-0021], for which the IC50 in the experiment with A375 and in the experiment on COLO205 was under 1 µM in each case. `CN(C)c1ncc(-c2cnc3[nH]cc(C(=O)c4c(F)ccc(NS(=O)(=O)N5CCCC5)c4F)c3c2)cn1` [Compound P-0022]: the IC50 in the experiment with A375 and with COLO205 was under 1 µM in each case. Turning to `O=C(c1c(F)ccc(NS(=O)(=O)N2CCCC2)c1F)c1c[nH]c2ncc(I)cc12` [Compound P-0024], the IC50 is under 1 µM with A375 and over 1 µM in the experiment with COLO205. As to `Cc1ccc(-c2cnc3[nH]cc(C(=O)c4cccc(NS(=O)(=O)N(C)C)c4F)c3c2)cn1` [Compound P-0029], the IC50 with A375 and in the experiment on COLO205 was under 1 µM throughout. For the compound `CN(C)c1ccc(-c2cnc3[nH]cc(C(=O)c4cccc(NS(=O)(=O)N(C)C)c4F)c3c2)cn1` [Compound P-0030], the IC50 with A375 and in the experiment on COLO205 was under 1 µM in each case. Regarding `CCN(C)S(=O)(=O)Nc1cccc(C(=O)c2c[nH]c3ncc(-c4ccc(C#N)cc4)cc23)c1F` [Compound P-0031], the IC50 with A375 and in the experiment with COLO205 was under 1 µM each time. Regarding `CCN(C)S(=O)(=O)Nc1cccc(C(=O)c2c[nH]c3ncc(-c4cccnc4)cc23)c1F` [Compound P-0032], the IC50 in the experiment with A375 and in the experiment on COLO205 was under 1 µM in each case. In the case of `CCN(C)S(=O)(=O)Nc1cccc(C(=O)c2c[nH]c3ncc(-c4ccccc4)cc23)c1F` [Compound P-0036, 3-[3-[[ethyl(methyl)sulfamoyl]amino]-2-fluoro-benzoyl]-5-phenyl-1H-pyrrolo[2,3-b]pyridine], the IC50 is under 1 µM in the experiment on A375 and over 1 µM in the experiment with COLO205. The corresponding values for `CN(C)S(=O)(=O)Nc1cccc(C(=O)c2c[nH]c3ncc(-c4ccccc4)cc23)c1F` [Compound P-0037, 3-[3-(dimethylsulfamoylamino)-2-fluoro-benzoyl]-5-phenyl-1H-pyrrolo[2,3-b]pyridine] are under 1 µM and over 1 µM. Compound `COc1ncc(-c2cnc3[nH]cc(C(=O)c4cccc(NS(=O)(=O)N5CCC(OCc6ccccc6)C5)c4F)c3c2)cn1` (centres unmarked) [Compound P-0041, 3-benzyloxy-N-[2-fluoro-3-[5-(2-methoxypyrimidin-5-yl)-1H-pyrrolo[2,3-b]pyridine-3-carbonyl]phenyl]pyrrolidine-1-sulfonamide] displayed an IC50 in the experiment on A375 of over 1 µM. `CN(C)c1ccc(-c2cnc3[nH]cc(C(=O)c4cccc(NS(=O)(=O)N5CCCC5)c4F)c3c2)cn1` [Compound P-0046, N-[3-[5-[6-(dimethylamino)-3-pyridyl]-1H-pyrrolo[2,3-b]pyridine-3-carbonyl]-2-fluoro-phenyl]pyrrolidine-1-sulfonamide]: the IC50 with A375 and in the experiment on COLO205 was under 1 µM throughout. In the case of `CCN(C)S(=O)(=O)Nc1cccc(C(=O)c2c[nH]c3ncc(-c4ccc(C5(C#N)CC5)cc4)cc23)c1F` [Compound P-0061, 5-[4-(1-cyanocyclopropyl)phenyl]-3-[3-[[ethyl(methyl)sulfamoyl]amino]-2-fluoro-benzoyl]-1H-pyrrolo[2,3-b]pyridine], the IC50 with A375 and in the experiment on COLO205 was under 1 µM throughout. Consider `COC(=O)CCS(=O)(=O)Nc1cccc(C(=O)c2c[nH]c3ncc(-c4cnc(OC)nc4)cc23)c1F` [Compound P-0066, methyl 3-[[2-fluoro-3-[5-(2-methoxypyrimidin-5-yl)-1H-pyrrolo[2,3-b]pyridine-3-carbonyl]phenyl]sulfamoyl]propanoate], for which the IC50 with A375 and in the experiment on COLO205 was under 1 µM in each case.

In the case of `COc1ncc(-c2cnc3[nH]cc(C(=O)c4cccc(NS(=O)(=O)C5CC5)c4F)c3c2)cn1` [Compound P-0067, N-[2-fluoro-3-[5-(2-methoxypyrimidin-5-yl)-1H-pyrrolo[2,3-b]pyridine-3-carbonyl]phenyl]cyclopropanesulfonamide], the IC50 is under 1 µM with A375 and over 1 µM in the experiment on COLO205.

As for `COc1ncc(-c2cnc3[nH]cc(C(=O)c4cccc(NS(=O)(=O)N(C)C(C)C)c4F)c3c2)cn1` [Compound P-0075, 3-[2-fluoro-3-[[isopropyl(methyl)sulfamoyl]amino]benzoyl]-5-(2-methoxypyrimidin-5-yl)-1H-pyrrolo[2,3-b]pyridine], the IC50 is under 1 µM with A375 and over 1 µM with COLO205. For `CCCN(C)S(=O)(=O)Nc1ccc(F)c(C(=O)c2c[nH]c3ncc(-c4ccc(C5(C#N)CC5)cc4)cc23)c1F` [Compound P-0079, 5-[4-(1-cyanocyclopropyl)phenyl]-3-[2,6-difluoro-3-[[methyl(propyl)sulfamoyl]amino]benzoyl]-1H-pyrrolo[2,3-b]pyridine] the same measures were under 1 µM and under 1 µM. For `CCCN(C)S(=O)(=O)Nc1cccc(C(=O)c2c[nH]c3ncc(-c4cnc(NC5CC5)nc4)cc23)c1F` [Compound P-0082, 5-[2-(cyclopropylamino)pyrimidin-5-yl]-3-[2-fluoro-3-[[methyl(propyl)sulfamoyl]amino]benzoyl]-1H-pyrrolo[2,3-b]pyridine] the same measures were under 1 µM and under 1 µM. On to `COc1ncc(-c2cnc3[nH]cc(C(=O)c4cccc(NS(=O)(=O)N(C)CC5CC5)c4F)c3c2)cn1` [Compound P-0083, 3-[3-[[cyclopropylmethyl(methyl)sulfamoyl]amino]-2-fluoro-benzoyl]-5-(2-methoxypyrimidin-5-yl)-1H-pyrrolo[2,3-b]pyridine], for which the IC50 in the experiment on A375 and with COLO205 was under 1 µM in each case. Take `CCCN(C)S(=O)(=O)Nc1cccc(C(=O)c2c[nH]c3ncc(-c4cnc(C5CC5)nc4)cc23)c1F` [Compound P-0086, 5-(2-cyclopropylpyrimidin-5-yl)-3-[2-fluoro-3-[[methyl(propyl)sulfamoyl]amino]benzoyl]-1H-pyrrolo[2,3-b]pyridine]: the IC50 with A375 and with COLO205 was under 1 µM in each case. In the case of `CCN(C)S(=O)(=O)Nc1cccc(C(=O)c2c[nH]c3ncc(-c4ccc(C5CC5)nc4)cc23)c1F` [Compound P-0087, 5-(6-cyclopropyl-3-pyridyl)-3-[3-[[ethyl(methyl)sulfamoyl]amino]-2-fluoro-benzoyl]-1H-pyrrolo[2,3-b]pyridine], the IC50 with A375 and in the experiment on COLO205 was under 1 µM each time. For `CCN(C)S(=O)(=O)Nc1cccc(C(=O)c2c[nH]c3ncc(-c4cncc(C#N)c4)cc23)c1F` [Compound P-0101, 5-(5-cyano-3-pyridyl)-3-[3-[[ethyl(methyl)sulfamoyl]amino]-2-fluoro-benzoyl]-1H-pyrrolo[2,3-b]pyridine], in the experiment with A375, the IC50 is under 1 µM.

Compound `CC1(C)CCN(S(=O)(=O)Nc2cccc(C(=O)c3c[nH]c4ncc(-c5cnc(C6CC6)nc5)cc34)c2F)C1` [Compound P-0246, N-[3-[5-(2-cyclopropylpyrimidin-5-yl)-1H-pyrrolo[2,3-b]pyridine-3-carbonyl]-2-fluoro-phenyl]-3,3-dimethyl-pyrrolidine-1-sulfonamide] had an IC50 in the experiment with A375 of over 1 µM. The compound `CCOC(=O)C1CCCN1S(=O)(=O)Nc1cccc(C(=O)c2c[nH]c3ncc(-c4cnc(OC)nc4)cc23)c1F` (centres unmarked) [Compound P-0257, ethyl 1-[[2-fluoro-3-[5-(2-methoxypyrimidin-5-yl)-1H-pyrrolo[2,3-b]pyridine-3-carbonyl]phenyl]sulfamoyl]pyrrolidine-2-carboxylate] registered an IC50 in the experiment on COLO205 of over 1 µM.
